# Source: PubChem BioAssay AID449727 (Sanford-Burnham Center for Chemical Genomics, 2010)
# pIC50: −log10 of the molar value.
# Target: Tyrosine-protein phosphatase non-receptor type 22 (Homo sapiens) (UniProt Q9Y2R2)
# Test: LYP (PTPN22) phosphatase inhibitor potency, SAR follow-up, biochemical, pCAP fluorogenic substrate, fluorescence, set 3 (AID 449727)
# Conditions: recombinant LYP
# Tyrosine-protein phosphatase non-receptor type 22 (Homo sapiens), sequence (Q9Y2R2 whole entry, looked up): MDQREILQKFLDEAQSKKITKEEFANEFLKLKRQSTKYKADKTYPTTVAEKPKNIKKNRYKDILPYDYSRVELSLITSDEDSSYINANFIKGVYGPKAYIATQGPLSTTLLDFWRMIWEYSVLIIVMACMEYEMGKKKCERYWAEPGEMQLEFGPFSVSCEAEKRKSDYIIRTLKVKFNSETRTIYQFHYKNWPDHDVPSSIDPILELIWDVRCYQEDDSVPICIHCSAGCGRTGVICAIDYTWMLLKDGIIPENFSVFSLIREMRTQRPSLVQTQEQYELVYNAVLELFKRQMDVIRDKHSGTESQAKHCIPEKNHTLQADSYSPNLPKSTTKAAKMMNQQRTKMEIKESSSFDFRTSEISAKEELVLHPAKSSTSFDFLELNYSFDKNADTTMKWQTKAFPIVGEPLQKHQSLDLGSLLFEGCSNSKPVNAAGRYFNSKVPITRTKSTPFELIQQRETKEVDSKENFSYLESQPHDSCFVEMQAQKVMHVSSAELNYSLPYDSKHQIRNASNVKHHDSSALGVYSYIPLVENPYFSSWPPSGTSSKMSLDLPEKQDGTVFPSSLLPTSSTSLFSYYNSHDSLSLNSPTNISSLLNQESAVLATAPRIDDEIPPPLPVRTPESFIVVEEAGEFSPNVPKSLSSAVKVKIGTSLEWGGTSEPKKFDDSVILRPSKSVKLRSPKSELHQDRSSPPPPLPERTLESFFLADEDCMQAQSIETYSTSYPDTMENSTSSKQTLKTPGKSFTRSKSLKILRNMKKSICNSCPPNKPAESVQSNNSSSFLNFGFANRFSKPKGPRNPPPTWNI
row,pIC50,SMILES
1,4.12,CCc1ccc(/C=C2\SC(=S)N(CCCC(=O)Nc3ccc(C(=O)O)cc3)C2=O)cc1
2,4.51,CCOC(=O)C1=C(C)N=c2s/c(=C/c3cc(Cl)c(OCC(=O)O)c(OC)c3)c(=O)n2C1c1ccccc1Cl (stereo unspecified)
3,5.20,N#C/C(=C\c1ccc(OCc2ccc(Cl)cc2)cc1)C(=O)Nc1cccc(C(=O)O)c1

# Second part, the molecule before the results:
row,SMILES,pIC50
1,COc1ccc(/C=C2\SC(=S)N(CCC(=O)Nc3ccc(C(=O)O)cc3)C2=O)cc1OC,5.53
2,O=C(O)CCCN1C(=O)/C(=C/c2ccc(-c3nc4ccccc4s3)o2)SC1=S,5.40
3,Cc1c(Cl)cccc1NS(=O)(=O)c1ccc2c(c1)C1C=CCC1C(c1ccc(C(=O)O)cc1)N2 (stereo unspecified),4.33
